{"source": "PubChem BioAssay AID1963437", "about": "(Molecular Pharmacology Branch, DTP, NCI, 2024)", "system": "OVCAR-8 complex spheroid, growth inhibition", "assay": "Anticancer human tumor OVCAR-8 cell line growth inhibition [Asc];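 on all read-outs here: spheroids exposed to agents for 7 days before readout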;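 on viability, T/C: percent viability relative to DMSO vehicle wells taken as 100%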", "conditions": "for IC50: curve of first compound; for viability, T/C: stronger effect = lower value", "outline": "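Stromal components (HUVEC and hMSC) are co-assembled with the cancer cells into multicellular spheroids. Drugs are then added singly or paired, at concentrations falling by half-log increments from a clinically achievable maximum, capped at 10 microM without known Cmax.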"}
{"smiles": "CCN1CCN(Cc2ccc(Nc3ncc(F)c(-c4cc(F)c5nc(C)n(C(C)C)c5c4)n3)nc2)CC1", "note": "+ Cc1c(S(C)(=O)=O)c(-c2cc(F)cc(N3CCN(c4ccc(NS(=O)(=O)c5ccc(NC(CCN6CCC(C(=O)OCCCP(=O)(O)O)CC6)CSc6ccccc6)c(S(=O)(=O)C(F)(F)F)c5)cc4)CC3)c2)c(-c2ccc(Cl)cc2)n1C(C)C", "values": [{"measurement": "IC50", "setting": "second compound 0.0316 µM", "value": "> 1000", "unit": "nM"}, {"measurement": "IC50", "setting": "second compound 0.1 µM", "value": "> 1000", "unit": "nM"}, {"measurement": "IC50", "setting": "second compound 0.316 µM", "value": "> 1000", "unit": "nM"}, {"measurement": "IC50", "setting": "second compound 1 µM", "value": "> 1000", "unit": "nM"}, {"measurement": "IC50", "setting": "second compound 3.16 µM", "value": "> 1000", "unit": "nM"}, {"measurement": "IC50", "setting": "second compound 10 µM", "value": "> 1000", "unit": "nM"}, {"measurement": "viability, T/C", "setting": "second compound 0.0316 µM, first compound 0.00316 µM", "value": 102, "unit": "%"}, {"measurement": "viability, T/C", "setting": "second compound 0.0316 µM, first compound 0.01 µM", "value": 96.1, "unit": "%"}, {"measurement": "viability, T/C", "setting": "second compound 0.0316 µM, first compound 0.0316 µM", "value": 95.6, "unit": "%"}, {"measurement": "viability, T/C", "setting": "second compound 0.0316 µM, first compound 0.1 µM", "value": 98.2, "unit": "%"}, {"measurement": "viability, T/C", "setting": "second compound 0.0316 µM, first compound 0.316 µM", "value": 112, "unit": "%"}, {"measurement": "viability, T/C", "setting": "second compound 0.0316 µM, first compound 1 µM", "value": 128, "unit": "%"}, {"measurement": "viability, T/C", "setting": "second compound 0.1 µM, first compound 0.00316 µM", "value": 90.3, "unit": "%"}, {"measurement": "viability, T/C", "setting": "second compound 0.1 µM, first compound 0.01 µM", "value": 87.8, "unit": "%"}, {"measurement": "viability, T/C", "setting": "second compound 0.1 µM, first compound 0.0316 µM", "value": 90.4, "unit": "%"}, {"measurement": "viability, T/C", "setting": "second compound 0.1 µM, first compound 0.1 µM", "value": 101, "unit": "%"}, {"measurement": "viability, T/C", "setting": "second compound 0.1 µM, first compound 0.316 µM", "value": 112, "unit": "%"}, {"measurement": "viability, T/C", "setting": "second compound 0.1 µM, first compound 1 µM", "value": 118, "unit": "%"}, {"measurement": "viability, T/C", "setting": "second compound 0.316 µM, first compound 0.00316 µM", "value": 93.6, "unit": "%"}, {"measurement": "viability, T/C", "setting": "second compound 0.316 µM, first compound 0.01 µM", "value": 97.5, "unit": "%"}, {"measurement": "viability, T/C", "setting": "second compound 0.316 µM, first compound 0.0316 µM", "value": 103, "unit": "%"}, {"measurement": "viability, T/C", "setting": "second compound 0.316 µM, first compound 0.1 µM", "value": 107, "unit": "%"}, {"measurement": "viability, T/C", "setting": "second compound 0.316 µM, first compound 0.316 µM", "value": 117, "unit": "%"}, {"measurement": "viability, T/C", "setting": "second compound 0.316 µM, first compound 1 µM", "value": 121, "unit": "%"}, {"measurement": "viability, T/C", "setting": "second compound 1 µM, first compound 0.00316 µM", "value": 89.1, "unit": "%"}, {"measurement": "viability, T/C", "setting": "second compound 1 µM, first compound 0.01 µM", "value": 105, "unit": "%"}, {"measurement": "viability, T/C", "setting": "second compound 1 µM, first compound 0.0316 µM", "value": 99.7, "unit": "%"}, {"measurement": "viability, T/C", "setting": "second compound 1 µM, first compound 0.1 µM", "value": 107, "unit": "%"}, {"measurement": "viability, T/C", "setting": "second compound 1 µM, first compound 0.316 µM", "value": 97.5, "unit": "%"}, {"measurement": "viability, T/C", "setting": "second compound 1 µM, first compound 1 µM", "value": 122, "unit": "%"}, {"measurement": "viability, T/C", "setting": "second compound 3.16 µM, first compound 0.00316 µM", "value": 108, "unit": "%"}, {"measurement": "viability, T/C", "setting": "second compound 3.16 µM, first compound 0.01 µM", "value": 92.3, "unit": "%"}, {"measurement": "viability, T/C", "setting": "second compound 3.16 µM, first compound 0.0316 µM", "value": 103, "unit": "%"}, {"measurement": "viability, T/C", "setting": "second compound 3.16 µM, first compound 0.1 µM", "value": 89.7, "unit": "%"}, {"measurement": "viability, T/C", "setting": "second compound 3.16 µM, first compound 0.316 µM", "value": 106, "unit": "%"}, {"measurement": "viability, T/C", "setting": "second compound 3.16 µM, first compound 1 µM", "value": 95.4, "unit": "%"}, {"measurement": "viability, T/C", "setting": "second compound 10 µM, first compound 0.00316 µM", "value": 105, "unit": "%"}, {"measurement": "viability, T/C", "setting": "second compound 10 µM, first compound 0.01 µM", "value": 111, "unit": "%"}, {"measurement": "viability, T/C", "setting": "second compound 10 µM, first compound 0.0316 µM", "value": 90.2, "unit": "%"}, {"measurement": "viability, T/C", "setting": "second compound 10 µM, first compound 0.1 µM", "value": 116, "unit": "%"}, {"measurement": "viability, T/C", "setting": "second compound 10 µM, first compound 0.316 µM", "value": 93.1, "unit": "%"}, {"measurement": "viability, T/C", "setting": "second compound 10 µM, first compound 1 µM", "value": 109, "unit": "%"}]}
